Data: article PMC10319141, “Imidazoquinolines with improved pharmacokinetic properties induce a high IFNα to TNFα ratio in vitro and in vivo” (Frontiers in Immunology, 2023)
Read-outs that look alike come from different tables or passages of the source.

How the values were obtained:
human TLR7 = target: T1, human TLR7 (Homo sapiens, UniProt Q9NYK1); experiment: HEK-Blue hTLR7 SEAP reporter assay; format: cell-based; settings: for TLR7 activity rel. to assay max: average maximal SEAP secretion relative to maximum secretion observed in the assay
T1 construct: host or cells: HEK blue hTLR7 reporter cells
T1 sequence (Q9NYK1 27-1049): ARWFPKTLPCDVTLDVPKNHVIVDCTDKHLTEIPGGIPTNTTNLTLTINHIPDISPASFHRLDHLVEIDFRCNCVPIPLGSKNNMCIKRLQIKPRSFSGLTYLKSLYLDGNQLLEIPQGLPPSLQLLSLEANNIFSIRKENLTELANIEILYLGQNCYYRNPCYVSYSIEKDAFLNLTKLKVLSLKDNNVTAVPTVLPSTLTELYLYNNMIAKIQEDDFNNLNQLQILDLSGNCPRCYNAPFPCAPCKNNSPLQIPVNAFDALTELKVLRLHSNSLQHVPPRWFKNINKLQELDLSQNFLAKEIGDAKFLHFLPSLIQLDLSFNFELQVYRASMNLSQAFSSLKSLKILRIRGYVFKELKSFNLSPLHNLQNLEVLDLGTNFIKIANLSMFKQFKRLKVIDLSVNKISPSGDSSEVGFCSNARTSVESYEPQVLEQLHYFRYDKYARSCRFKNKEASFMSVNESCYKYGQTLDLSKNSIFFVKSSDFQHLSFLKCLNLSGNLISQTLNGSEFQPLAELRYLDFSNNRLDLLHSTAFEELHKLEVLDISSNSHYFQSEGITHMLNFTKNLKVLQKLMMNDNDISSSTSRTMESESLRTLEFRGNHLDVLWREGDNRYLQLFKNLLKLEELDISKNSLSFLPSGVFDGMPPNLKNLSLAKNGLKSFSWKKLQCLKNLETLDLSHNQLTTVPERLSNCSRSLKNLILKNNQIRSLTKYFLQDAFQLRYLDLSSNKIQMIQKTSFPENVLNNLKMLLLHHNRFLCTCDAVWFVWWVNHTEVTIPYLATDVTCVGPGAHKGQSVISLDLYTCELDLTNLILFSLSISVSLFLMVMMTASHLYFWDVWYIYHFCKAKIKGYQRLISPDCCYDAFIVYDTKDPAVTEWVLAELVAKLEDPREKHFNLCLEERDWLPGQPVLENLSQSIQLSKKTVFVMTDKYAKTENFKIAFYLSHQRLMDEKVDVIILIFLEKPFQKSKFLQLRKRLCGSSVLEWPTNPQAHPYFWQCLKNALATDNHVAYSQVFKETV
Protocol: (§1) HEK blue hTLR7 or hTLR8 reporter cells (Invivogen) were cultivated in DMEM High Glucose (Biowest) according to the manufacturer’s instructions. Cells were treated with test compounds and controls at various concentrations in serum-free DMEM and incubated at 37°C, 5% CO2 for 24 h before supernatants were collected.
(§2) Relative secreted embryonic alkaline phosphatase (SEAP) activity in the supernatants was determined by quantification of para-Nitrophenyl Phosphate (pNPP)-turnover. Supernatants were diluted 10-fold in a solution containing 1 mM MgCl2, 1 M diethanolamine and 1 mg/mL pNPP and incubated at RT for 15 min before the reaction was stopped by the addition of 0.25 volumes of 1 M NaOH. Absorbance was measured at 405 nm on a Versamax microplate reader (Molecular Devices) and normalized to the mean of >5 solvent controls.
(§3) To obtain reliable estimates, replicate measurements of a minimum of 2 experiments were normalized to the maximal SEAP activity of a compound in a given experiment and pooled before fitting a non-linear function to the data.

undifferentiated U937 = experiment: Helix NIR dye exclusion in undifferentiated U937; format: cell-based; settings: 25 µM; in words
Protocol: Exclusion of Helix NIR (BioLegend) was used to assay membrane integrity following compound treatment. Culture conditions for U937 were as described above, undifferentiated cells were incubated with varying concentrations of compound or with solvent. Helix NIR was added to the cells to a final concentration of 10 nM, cells were incubated at RT for 10 min and acquired on a ZE5 Cell Analyzer (Bio-Rad). The cutoff for positive staining was set to approximately the 99th percentile of unstained cells.

PMA-differentiated U937 = experiment: MTT viability assay in PMA-differentiated U937; format: cell-based; settings: 25 µM; PMA-differentiated U937, 2 days
human TLR8 = target: T2, human TLR8 (Homo sapiens, UniProt Q9NR97); experiment: HEK-Blue hTLR8 SEAP reporter assay; format: cell-based; settings: for TLR8 activity rel. to assay max: average maximal SEAP secretion relative to maximum secretion observed in the assay; for SEAP secretion from HEK-Blue hTLR-8: in words
T2 construct: host or cells: HEK blue hTLR8 reporter cells
T2 sequence (Q9NR97 27-1041): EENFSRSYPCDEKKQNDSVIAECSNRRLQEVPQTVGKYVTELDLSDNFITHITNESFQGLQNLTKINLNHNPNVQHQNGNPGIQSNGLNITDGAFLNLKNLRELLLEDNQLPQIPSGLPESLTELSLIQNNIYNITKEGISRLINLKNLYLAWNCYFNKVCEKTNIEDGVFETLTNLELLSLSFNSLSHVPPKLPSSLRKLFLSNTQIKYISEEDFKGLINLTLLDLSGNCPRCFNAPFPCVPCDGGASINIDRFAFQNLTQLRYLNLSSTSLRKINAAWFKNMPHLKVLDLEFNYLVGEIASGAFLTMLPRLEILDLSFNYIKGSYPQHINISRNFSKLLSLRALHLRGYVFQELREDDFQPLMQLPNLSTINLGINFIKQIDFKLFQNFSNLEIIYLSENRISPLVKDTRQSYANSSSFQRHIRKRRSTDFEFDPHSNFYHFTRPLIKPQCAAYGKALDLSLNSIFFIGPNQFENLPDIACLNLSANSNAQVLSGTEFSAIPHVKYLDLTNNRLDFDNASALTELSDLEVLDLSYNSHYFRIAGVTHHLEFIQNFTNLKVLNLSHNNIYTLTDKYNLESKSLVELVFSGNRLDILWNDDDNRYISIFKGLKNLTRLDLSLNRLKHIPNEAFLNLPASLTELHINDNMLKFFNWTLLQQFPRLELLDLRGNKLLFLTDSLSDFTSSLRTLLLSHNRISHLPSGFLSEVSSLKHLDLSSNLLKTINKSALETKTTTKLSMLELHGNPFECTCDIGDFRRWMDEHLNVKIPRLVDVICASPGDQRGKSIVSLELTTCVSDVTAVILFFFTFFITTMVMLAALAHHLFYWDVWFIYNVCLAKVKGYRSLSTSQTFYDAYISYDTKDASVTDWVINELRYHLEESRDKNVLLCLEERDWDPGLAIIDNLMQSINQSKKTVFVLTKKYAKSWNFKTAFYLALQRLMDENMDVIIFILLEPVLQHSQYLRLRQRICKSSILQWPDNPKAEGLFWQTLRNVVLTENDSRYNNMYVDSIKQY
Protocol: as §1, §2, §3

[1] = Compound concentrations in organs and plasma after three consecutive daily s.c. treatments (Figure 6B, S7); format: in vivo, mice; settings: for compound plasma level at peak: s.c.; for concentration at 4 h / concentration at 28 h / concentration at 52 h: mouse, sc, repeated daily s.c. treatment; for concentration at 4 h: after 4 h; for concentration at 28 h: after 28 h; for concentration at 52 h: after 52 h
Protocol: All samples were extracted with 3 or 6 volumes acetonitrile containing terbuthylazine as an internal standard (ACN) relative to either sample weight or volume. Liquid samples (plasma, culture medium, cell suspensions in stability experiments) were diluted in either 3 (culture medium, cell suspensions) or 6 (plasma) volumes ACN, pellet and blood samples were extracted by addition of ACN followed by sonication for 5 min. Organ samples were digested with 0.5 µg/mg Proteinase K (Genaxxon) for 1 h at 50°C before being homogenized using a Fastprep FP-24 5G instrument (MP-Biomedicals). Homogenates were diluted with 6 volumes ACN and homogenized again. All extracts were cleared by centrifugation at ~20.000xg for 10 min at 4°C.
Quantification of analytes was performed on an Agilent 1260/1290 Infinity system fitted with an Agilent C18 Poroshell 120 column (4.6 x 50 mm, 2.7 µm) coupled to a triple quadrupole Sciex API 4000 MS/MS detector. The mobile phase was composed of water containing 0.1% formic acid (eluent A) and acetonitrile containing 0.1% formic acid (eluent B). Gradient used was: 5% B for 0.5 min, to 100% B in 4.5 min, 100% B for 2 min, to 5% B in 0.5 min, 5% for 2.5 min. MS detection parameters are listed in SI Table S1 .
Formulation. Test compounds were prepared for application in either 1% Tween 80, 9% PEG400 in ultrapure water (Biowest) (i.v., i.p., p.o. application) or 5 mM citric acid in 0.9% saline (Braun) (subcutaneous application). If compounds were administered subcutaneously, injections were carried out into the neck crease.
Collection of Samples. Mice were bled from the tail vein at various timepoints. Heparin (Sigma) or K2-EDTA (Sigma) was added to blood samples to a final […] concentration of 10-15 Unit or 5 mM. Plasma was generated by centrifugation at 6800xg for 8 min at 4°C and stored at -80°C until analyzed by ELISA or CBA. Animals were sacrificed after the indicated time points by CO2 inhalation. Heart blood and organs for compound quantification by HPLC-MS/MS were collected post mortem and stored at –20°C until extracted as described above.
Dotted lines indicate the time of repeated compound applications. (A) Cytokine levels in pooled tail plasma of mice from individual treatment groups (n=3 per pool and time point), error bars represent range of two replicate measurements. (B) Peripheral blood was collected from the tail vein before, 15, 30 60, 120, 240, 360 and 480 min after s.c. treatment. Compound concentration in peripheral plasma was analyzed by HPLC-MS/MS, data presented as mean ± SD.
Samples were collected 4 h, 28 h and 52 h after s.c. treatment. Skin samples were sampled
at time points 4 h and 52 h. Compound concentrations were analyzed by HPLC-MS/MS, data

[2] = 95% CI, HEK-blue human TLR7, 24 h, read-out: TLR7 EC50
[3] = Figure S3, axis c/[µM], pooled from 3 experiments, read-out: compound-specific EC50 in dose response plot, HEK Blue hTLR7
[4] = 95% CI, HEK-blue human TLR8, 24 h, read-out: TLR8 EC50
[5] = Figure S4, axis c/[µM], pooled from 3 experiments, read-out: compound-specific EC50 in dose response plot, HEK Blue hTLR8
[6] = brain, read-out: concentration in brain
[7] = liver, read-out: concentration in liver

SMILES	Average maximal activity in HEK-Blue hTLR7 relative to RSQ (human TLR7) [%]	EC50 (human TLR7; [2]) [µM]	EC50 (human TLR7; [3]) [µM]	TLR7 activity rel. to assay max (human TLR7)	effect on membrane integrity, dye exclusion assay in U937 (undifferentiated U937)	MTT U937, percent MTT conversion relative to solvent controls (PMA-differentiated U937) [%]	TLR8 activity rel. to assay max (human TLR8)	SEAP secretion from HEK-Blue hTLR-8 (human TLR8)	maximal induction in HEK-Blue hTLR-8 (lower than that of RSQ) (human TLR8) [%]	EC50 (human TLR8; [4]) [µM]	EC50 (human TLR8; [5]) [µM]	compound plasma level at peak ([1]; day 1, 60 min after application) [nM]	compound plasma level at peak ([1]; day 2, 60 min after application) [nM]	compound plasma level at peak ([1]; day 3, 60 min after application) [nM]	concentration at 4 h [1, 6] [nM]	concentration at 28 h [1, 6] [nM]	concentration at 52 h [1, 6] [nM]	concentration at 4 h [1, 7] [nM]	concentration at 28 h [1, 7] [nM]	concentration at 52 h [1, 7] [nM]
CCCCc1nc2c(N)nc3ccccc3c2n1CCC1CCN(C(=O)OC(C)(C)C)CC1 [A1-boc]	55	0.39 to 0.69	0.527	55% ± 7%	negative effects on membrane integrity	50	4% ± 2%	close to baseline	–	–	–	–	–	–	–	–	–	–	–	–
CCCCc1nc2c(N)nc3ccccc3c2n1CC1CCN(C(=O)OC(C)(C)C)CC1 [A2-boc]	86	0.23 to 0.47	–	86% ± 9%	–	–	4% ± 1%	close to baseline	–	–	–	–	–	–	–	–	–	–	–	–
CCCCc1nc2c(N)nc3ccccc3c2n1CC1CCNCC1 [A2]	81	0.075 to 0.12	0.0957	81% ± 13%	–	–	57% ± 9%	–	57	2.8 to 3.1	2.96	–	–	–	–	–	–	–	–	–
CCCCc1nc2c(N)nc3ccccc3c2n1CCOCCOCCN [A3]	–	1 to 1.5	1.24	62% ± 9%	–	–	36% ± 4%	–	36	8.2 to 8.5	8.36	–	–	–	–	–	–	–	–	–
CCCCc1nc2c(N)nc3ccccc3c2n1CCOCCOCCO [A4]	–	1.5 to 2.1	1.76	84% ± 5%	–	–	18% ± 8%	–	18	11 to 13	12.1	–	–	–	–	–	–	–	–	–
CC(C)Cn1cnc2c(N)nc3ccccc3c21 [IMQ, Imiquimod]	–	5.2 to 8.3	6.52	35% ± 7%	–	–	–	–	–	–	–	796	606	608	32	135	177	630	824	645
